In ChEMBL document CHEMBL5608216, “Discovery of a novel Xanthone derivative P24 for anti-AD via targeting sTGFBR3” (Eur J Med Chem, 2024):
Active and inactive are the calls of the source. The rule behind the calls is not given here.

Legend:
BV-2 [1] = experiment: Antiinflammatory activity in LPS-induced mouse BV-2 cells assessed as inhibition of NO production incubated for 24 hrs by Griess reagent based analysis; type: functional, cell-based; conditions: BV-2, 24 h
[2] = Cytotoxicity against LPS-induced mouse BV-2 cells assessed as survival rate at 10 uM measured after 24 hrs by MTT assay relative to control; type: toxicity, cell-based; conditions: LPS-induced BV-2 cells, read-out: Survival
[3] = target: T1, Transforming growth factor beta receptor type 3 (Mus musculus) (UniProt O88393); experiment: Binding affinity to sTGFBR3 in APP/PS1/tau mouse brain extract-induced mouse BV-2 cells at 37 to 77 degreeC measured after 3 hrs by CETSA; type: cell-based
T1 sequence (whole entry): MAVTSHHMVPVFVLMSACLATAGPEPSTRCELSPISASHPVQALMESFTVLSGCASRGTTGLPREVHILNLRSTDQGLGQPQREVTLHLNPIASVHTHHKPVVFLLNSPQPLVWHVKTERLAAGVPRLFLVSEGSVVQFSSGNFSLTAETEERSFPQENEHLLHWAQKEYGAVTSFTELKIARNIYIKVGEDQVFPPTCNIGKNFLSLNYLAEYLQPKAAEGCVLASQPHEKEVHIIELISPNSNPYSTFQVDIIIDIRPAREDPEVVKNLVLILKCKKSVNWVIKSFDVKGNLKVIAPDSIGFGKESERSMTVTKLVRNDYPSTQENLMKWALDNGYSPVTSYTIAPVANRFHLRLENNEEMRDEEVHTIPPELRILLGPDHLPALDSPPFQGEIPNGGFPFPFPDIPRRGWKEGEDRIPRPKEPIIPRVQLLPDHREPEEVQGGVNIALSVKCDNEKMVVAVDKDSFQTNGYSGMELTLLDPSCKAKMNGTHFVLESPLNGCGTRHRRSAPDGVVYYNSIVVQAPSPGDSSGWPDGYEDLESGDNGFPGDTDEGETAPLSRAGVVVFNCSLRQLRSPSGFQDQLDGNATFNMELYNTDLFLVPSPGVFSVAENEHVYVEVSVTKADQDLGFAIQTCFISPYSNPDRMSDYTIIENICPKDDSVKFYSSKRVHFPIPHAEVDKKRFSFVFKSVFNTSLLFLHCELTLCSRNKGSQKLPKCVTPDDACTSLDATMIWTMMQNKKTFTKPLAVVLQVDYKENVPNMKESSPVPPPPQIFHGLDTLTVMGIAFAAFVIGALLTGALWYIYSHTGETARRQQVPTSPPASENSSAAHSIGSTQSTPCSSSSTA

BV-2 [4] = experiment: Activation of TGF-beta pathway in APP/PS1/tau mouse brain extract-induced mouse BV-2 cells assessed as increase in phosphorylated SMAD2/3 protein level by immunoblot analysis; type: cell-based; conditions: filed as activator
[5] = Permeability of compound measured after 18 hrs by UV spectrophotometer based PAMPA; type: ADME
BV-2 [6] = experiment: Inhibition of NF-kappaB activation in APP/PS1/tau triple transgenic mouse brain extract-induced mouse BV-2 cells assessed as inhibition of phosphorylated IKBalpha protein expression by immunoblot analysis; type: cell-based; conditions: dose 1.25-10 µM
BV-2 [7] = experiment: Antiinflammatory activity in APP/PS1/tau triple transgenic mouse brain extract-induced mouse BV-2 cells assessed as reduction in IL-1beta expression by immunoblot analysis; type: functional, cell-based; conditions: dose 1.25-10 µM
BV-2 [8] = experiment: Inhibition of NF-kappaB activation in APP/PS1/tau triple transgenic mouse brain extract-induced mouse BV-2 cells assessed as reduction in IKK complex formation by immunoblot analysis; type: cell-based; conditions: dose 1.25-10 µM
[9] = Elimination half life in Sprague-Dawley rat at 50 mg/kg, po administered as single dose and measured upto 48 hrs; type: ADME, organism-based; conditions: in vivo, read-out: beta t1/2 (converted)
[10] = AUC (0 to t) in Sprague-Dawley rat at 50 mg/kg, po administered as single dose and measured upto 48 hrs; type: ADME, organism-based; conditions: in vivo
BV-2 [11] = experiment: Antiinflammatory activity in APP/PS1/tau triple transgenic mouse brain extract-induced mouse BV-2 cells assessed as reduction in TNFalpha expression by immunoblot analysis; type: functional, cell-based; conditions: dose 1.25-10 µM
[12] = Toxicity in C57BL/6 mouse assessed as mortality at 2000 mg/kg, po measured after 3 to 24 hrs; type: organism-based; conditions: in vivo, time 3-24 hrs
BV-2 [13] = experiment: Inhibition of NF-kappaB activation in APP/PS1/tau triple transgenic mouse brain extract-induced mouse BV-2 cells assessed as inhibition of phosphorylated p65 protein expression by immunoblot analysis; type: cell-based; conditions: dose 1.25-10 µM
BV-2 [14] = experiment: Antiinflammatory activity in APP/PS1/tau triple transgenic mouse brain extract-induced mouse BV-2 cells assessed as reduction in CD86 expression by immunoblot analysis; type: functional, cell-based; conditions: dose 1.25-10 µM
BV-2 [15] = experiment: Antiinflammatory activity in APP/PS1/tau triple transgenic mouse brain extract-induced mouse BV-2 cells assessed as increase in IL-4 expression by immunoblot analysis; type: functional, cell-based; conditions: dose 1.25-10 µM
BV-2 [16] = experiment: Enhancement of amyloid beta phagocytosis in APP/PS1/tau triple transgenic mouse brain extract-induced mouse BV-2 cells assessed as increase in fluorescence intensity pretreated for 1 hr followed by brain extract treatment and measured after 24 hrs by Thioflavin T staining based assay; type: functional, cell-based; conditions: dose 1.25-10 µM, time 25.0 hrs
BV-2 [17] = experiment: Activation of TGF-beta pathway in APP/PS1/tau triple transgenic mouse brain extract-induced mouse BV-2 cells assessed as increase in phosphorylated SMAD2/3 protein expression by immunoblot analysis; type: cell-based; conditions: filed as activator, dose 1.25-10 µM
[18] = Tmax in Sprague-Dawley rat at 50 mg/kg, po administered as single dose and measured upto 48 hrs; type: ADME, organism-based; conditions: in vivo
[19] = MRT (0 to infinity) in Sprague-Dawley rat at 50 mg/kg, po administered as single dose and measured upto 48 hrs; type: ADME, organism-based; conditions: in vivo
BV-2 [20] = experiment: Antiinflammatory activity in APP/PS1/tau triple transgenic mouse brain extract-induced mouse BV-2 cells assessed as increase in IL-10 expression by immunoblot analysis; type: functional, cell-based; conditions: dose 1.25-10 µM
BV-2 [21] = experiment: Antiinflammatory activity in APP/PS1/tau triple transgenic mouse brain extract-induced mouse BV-2 cells assessed as increase in CD206 expression by immunoblot analysis; type: functional, cell-based; conditions: dose 1.25-10 µM
[22] = Cmax in Sprague-Dawley rat at 50 mg/kg, po administered as single dose and measured upto 48 hrs; type: ADME, organism-based; conditions: in vivo

Structure (SMILES) | IC50 (BV-2 [1]) [nM] | viability at 24 h, 10 µM [2] [%] | other results
O=C(COc1ccc2c(=O)c3ccccc3oc2c1)NCc1ccc(Cl)c(Cl)c1 | 2890 | 54.6 | 
O=C(COc1ccc2c(=O)c3ccccc3oc2c1)NCc1ccccc1F | 1720 | 84.6 | 
O=C(COc1ccc2c(=O)c3ccccc3oc2c1)NCc1cccnc1 | 16000 | 75.4 | 
O=C(COc1ccc2c(=O)c3ccccc3oc2c1)N1CCNCC1 | 2150 | 101 | Activity [3]: inactive; Activity (BV-2 [4]): Active
O=C(COc1ccc2c(=O)c3ccccc3oc2c1)Nc1ccncc1 | 2790 | 108 | 
O=C(COc1ccc2c(=O)c3ccccc3oc2c1)NCc1cccc(F)c1 | > 30000 | 97.2 | 
CCn1cc(C(=O)O)c(=O)c2cc(F)c(N3CCNCC3)nc21 [ENOXACIN] |  |  | permeability [5]: 43.26%
O=C(COc1ccc2c(=O)c3ccccc3oc2c1)Nc1cccnc1 | 1920 | 91.9 | 
COc1ccc(CCNC(=O)COc2ccc3c(=O)c4ccccc4oc3c2)cc1 | 860 | 54.4 | 
CCC(NC(=O)COc1ccc2c(=O)c3ccccc3oc2c1)c1ccccn1 (stereo unspecified) | 5430 | 98.5 | 
O=C(COc1ccc2c(=O)c3ccccc3oc2c1)NCC1CCOCC1 | 520 | 105 | inhibition (BV-2 [6]): Dose-Dependent Effect; Activity (BV-2 [7]): Dose-Dependent Effect; inhibition (BV-2 [8]): Dose-Dependent Effect; half-life [9]: 10.3 h; AUCt [10]: 4738.426 ng·h/mL; Activity ([3]; filed as antagonist): Active; Activity (BV-2 [11]): Dose-Dependent Effect; Activity [12]: Non-Toxic; inhibition (BV-2 [13]): Dose-Dependent Effect; Activity (BV-2 [14]): Dose-Dependent Effect; Activity (BV-2 [15]): Dose-Dependent Effect; Activity (BV-2 [16]): Dose-Dependent Effect; Activity (BV-2 [17]): Dose-Dependent Effect; Tmax [18]: 12 h; MRT inf [19]: 14.5 h; Activity (BV-2 [20]): Dose-Dependent Effect; Activity (BV-2 [4]): Active; permeability [5]: 79.33%; Activity (BV-2 [21]): Dose-Dependent Effect; Cmax [22]: 304 ng/mL
O=C(COc1ccc2c(=O)c3ccccc3oc2c1)Nc1ccccn1 | > 30000 | 87.4 | 
CN1CCN(C(=O)COc2ccc3c(=O)c4ccccc4oc3c2)CC1 | 2250 | 91.6 | 
O=C(COc1ccc2c(=O)c3ccccc3oc2c1)N1CCOCC1 | 2490 | 108 | Activity ([3]; filed as antagonist): Active; Activity (BV-2 [4]): Active
